Laboratory results: PMC8874853 (Molecules, 2022)
Where two headings read alike, the source gives them in different places.

What was measured:
[1] = system: serum proteins; details: rats; cited from earlier work
[2] = system: serum proteins; details: mice; cited from earlier work
[3] = target: T1, BSA Site I / Site II (Bos taurus, UniProt P02769); test: Site marker studies with phenylbutazone (Site I) and ibuprofen (Site II); format: binding, bovine
T1 construct: purchased Sigma-Aldrich (St. Louis, MO, USA)
T1 sequence (P02769 25-607): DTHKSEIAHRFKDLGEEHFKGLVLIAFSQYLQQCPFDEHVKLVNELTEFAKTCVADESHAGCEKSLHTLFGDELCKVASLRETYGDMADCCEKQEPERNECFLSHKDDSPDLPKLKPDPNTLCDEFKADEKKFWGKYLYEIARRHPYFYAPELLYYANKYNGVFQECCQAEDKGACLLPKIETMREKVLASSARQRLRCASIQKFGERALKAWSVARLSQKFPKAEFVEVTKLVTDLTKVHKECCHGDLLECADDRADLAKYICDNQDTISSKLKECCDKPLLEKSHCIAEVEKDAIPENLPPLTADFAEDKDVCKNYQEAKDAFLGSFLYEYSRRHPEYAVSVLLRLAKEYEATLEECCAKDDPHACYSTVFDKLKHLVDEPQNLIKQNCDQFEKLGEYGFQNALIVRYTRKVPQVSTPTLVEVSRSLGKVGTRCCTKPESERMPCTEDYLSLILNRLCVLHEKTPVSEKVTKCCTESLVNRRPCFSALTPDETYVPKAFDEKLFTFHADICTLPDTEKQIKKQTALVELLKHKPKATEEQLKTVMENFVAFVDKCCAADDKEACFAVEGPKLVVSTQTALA

[4] = system: serum proteins; details: humans; cited from earlier work
[5] = target: T1, BSA Site I / Site II; parameters: method as in PMID 28513070, PMID 34946608; details: cited from earlier work
[6] = target: bovine serum albumin (BSA) (Bos taurus, UniProt P02769); test: Fluorescence quenching of BSA by ligand (binary and ternary systems; Stern Volmer, double log and van't Hoff analysis); format: binding
Sequence of bovine serum albumin (BSA) (P02769 25-607): as above
Description: The spectrofluorometer FP-8200 (JASCO, Hachioji, Tokyo, Japan) was used to measure the fluorescence spectra. […] The inner filter effects were corrected for the reabsorption of emitted light using the equation [35]: Fcor=Fobs×e^(Aex+Aem)/2
Fcor and Fobs are the corrected and observed fluorescence in the above equation, respectively, and Aex and Aem are excitation and emission wavelengths absorbance values, respectively.
The fluorescence spectra for the protein BSA for the binary and the ternary system were recorded at 280 nm (excitation wavelength) and an emission wavelength of 300–500 nm (Figure 1a–c). […] (1) kq=Ksv/τ0 where F0 is BSA’s fluorescence intensity, and F is BSA’s fluorescence intensity in the presence of quencher. Stern Volmer constant is given as Ksv, and (Q) is quencher concentration. The kq biomolecular quenching constant and τ0 the lifetime of the fluorophore in the absence of quencher and is valued at 10^−8 s for biopolymers.
The binding constants and binding stoichiometry are were determined using a double logarithmic regression plot derived from the equation: log(F0−F)/F=log Kb+n log[Q] .

SMILES	binding to serum proteins [1]	binding to serum proteins [2]	influence of phenylbutazone on quenching behavior and binding constant of BSA-ERL ([3]; Site I marker phenylbutazone)	binding constants of BSA-ERL in the presence and absence of ibuprofen ([3]; Site II marker ibuprofen)	binding site on BSA ([3]; site markers phenylbutazone and ibuprofen)	binding to serum proteins [4]	binding site on BSA [5]	bimolecular quenching constant kq ([6]; binary system, 298 K, kq = Ksv/τ0, τ0 10^−8 s)	Stern Volmer constant Ksv ± SD ([6]; binary system, BSA 1.5 μM, 298 K)	further reduction of fluorescence intensity of the BSA-ERL system by presence of QUR ([6]; difference ternary vs binary system)
C#Cc1cccc(Nc2ncnc3cc(OCCOC)c(OCCOC)cc23)c1 [ERL, Erlotinib]	92%	95%	strongly influenced	similar	Site I	92%				
O=c1c(O)c(-c2ccc(O)c(O)c2)oc2cc(O)cc(O)c12 [QUR, Quercetin]							Site I	46.07 × 10^12 M^−1S^−1	460,702 ± 1875 M^−1	26%
